The source of these data is US9145351B2, “Azole derivatives, methods for producing the same, intermediate thereof, agro-horticultural agents” (KUREHA CORPORATION, priority 2009, dated 2015).

Molecules are shown by their SMILES.

Common to all, as to type: cell-based
The test system of one assay is Alternaria alternata. Briefly: Plate medium fungicidal assay, Alternaria blotch A.m (Experimental Example 5). On the procedure:
(§1) In this Experimental Example, the fungicidal effects of the inventive compounds on various phytopathogenic fungi for plants and hazardous microorganism for industrial materials were examined by the methods described below. Each inventive compound was dissolved in 2 ml of dimethyl sulfoxide. 0.6 ml of this solution was added to 60 nil of a PDA medium (potato dextrose agar medium) at about 60 degrees C., which was mixed thoroughly in a 100-ml conical flask, and poured into a dish, where it was solidified, thereby obtaining a plate medium containing the inventive compound at 50 mg/L and 5 mg/L. On the other hand, a subject microorganism previously cultured on a plate medium was cut out using a cork borer whose diameter was 4 mm, and inoculated to the test compound-containing plate medium described above. […] The growth degree of the microorganism on the test compound-containing plate medium thus observed was compared with the growth degree of the microorganism in the untreated group, and % mycelial growth inhibition was calculated by the following equation. R=100(dc−dt)/dc wherein R=% mycelial extension inhibition, dc=flora diameter in untreated plate, dt=flora diameter in treated plate. The results obtained as described above were evaluated as one of the 5 grades according to the following criteria. […] Alternaria blotch (Alternaria alternata) A.m

The next assay has as its system Phaeosphaeria nodorum. The assay is described as follows: Plate medium fungicidal assay, wheat Septoria nodorum blotch P.n (Experimental Example 5). As for the experimental part:
as §1, with “Wheat Septoria nodorum” for “Alternaria”, “(Phaeosphaeria nodorum) P.n” for “(Alternaria alternata) A.m”

In a further assay the test system is Pyricularia oryzae. The assay is described as follows: microbe, parasite or virus in culture.
Another assay deals with Ustilago nuda. The assay is described as follows: Plate medium fungicidal assay, barley loose smut U.n (Experimental Example 5). On the procedure: as §1, with “Barley loose smut (Ustilago nuda) U.n” for “Alternaria blotch (Alternaria alternata) A.m”
In another assay the test system is Fusarium oxysporum. Briefly: Plate medium fungicidal assay, cucumber fusarium wilt F.c (Experimental Example 5). As for the experimental part: as §1, with “Cucumber fusarium wilt (Fusarium oxysporum) F.c” for “Alternaria blotch (Alternaria alternata) A.m”
Setting [1] is: plate medium containing compound at 5 mg/L.
[2] abbreviates: plate medium containing compound at 50 mg/L.

Take `O[C@]1(Cn2cncn2)[C@H](Cc2ccc(Cl)cc2)CCC1(CCl)CCl` (relative stereo) [Compound I-203, cis-5-(4-chlorobenzyl)-2,2-bis(chloromethyl)-1-(1H-1,2,4-triazol-1-yl)methylcyclopentanol]: the “Growth inhibition grade, A.m” value was 5 (% Mycerial growth inhibition of 80% or higher) with Alternaria alternata (plate medium, 5 mg/L) and 5 (% Mycerial growth inhibition of 80% or higher) in the assay with Alternaria alternata (plate medium, 50 mg/L). Further, the “Growth inhibition grade, P.n” value in the assay with Phaeosphaeria nodorum (plate medium, 5 mg/L) is recorded as 5 (% Mycerial growth inhibition of 80% or higher); in the assay on Phaeosphaeria nodorum (plate medium, 50 mg/L), 5 (% Mycerial growth inhibition of 80% or higher). For the same compound, the “Growth inhibition grade, P.o” value is given as 5 (% Mycerial growth inhibition of 80% or higher) in the assay with Pyricularia oryzae (plate medium, 5 mg/L) and 5 (% Mycerial growth inhibition of 80% or higher) with Pyricularia oryzae (plate medium, 50 mg/L). The “Growth inhibition grade, U.n” value in the assay with Ustilago nuda (plate medium, 5 mg/L) was 5 (% Mycerial growth inhibition of 80% or higher); with Ustilago nuda (plate medium, 50 mg/L) it was 5 (% Mycerial growth inhibition of 80% or higher). For the same compound, the “Growth inhibition grade, F.c” value in the assay on Fusarium oxysporum (plate medium, 5 mg/L) is 5 (% Mycerial growth inhibition of 80% or higher); in the assay with Fusarium oxysporum (plate medium, 50 mg/L), 5 (% Mycerial growth inhibition of 80% or higher).

On to `C[C@]1(CCl)CC[C@@H](Cc2ccccc2F)[C@]1(O)Cn1cncn1` (relative stereo) [Compound I-86], for which the “Growth inhibition grade, A.m” value was 4 (% Mycerial growth inhibition of less than 80 to 60% or higher) in the assay with Alternaria alternata (setting [1]) and 5 (% Mycerial growth inhibition of 80% or higher) in the assay with Alternaria alternata (setting [2]). The “Growth inhibition grade, P.n” value with Phaeosphaeria nodorum (setting [1]) and with Phaeosphaeria nodorum (setting [2]) was 5 (% Mycerial growth inhibition of 80% or higher) each time. Also, the “Growth inhibition grade, P.o” value with Pyricularia oryzae (setting [1]) and in the assay on Pyricularia oryzae (setting [2]) was 5 (% Mycerial growth inhibition of 80% or higher) throughout. The “Growth inhibition grade, U.n” value in the assay on Ustilago nuda (setting [1]) and with Ustilago nuda (setting [2]) was 5 (% Mycerial growth inhibition of 80% or higher) each time. Besides, the “Growth inhibition grade, F.c” value with Fusarium oxysporum (setting [1]) and in the assay with Fusarium oxysporum (setting [2]) was 5 (% Mycerial growth inhibition of 80% or higher) each time.

Turning to `Cc1ccc(C[C@@H]2CC[C@](C)(CCl)[C@@]2(O)Cn2cncn2)cc1` (relative stereo) [Compound I-80], the “Growth inhibition grade, A.m” value in the assay on Alternaria alternata (setting [1]) and with Alternaria alternata (setting [2]) was 5 (% Mycerial growth inhibition of 80% or higher) each time. Further, the “Growth inhibition grade, P.n” value in the assay with Phaeosphaeria nodorum (setting [1]) and in the assay with Phaeosphaeria nodorum (setting [2]) was 5 (% Mycerial growth inhibition of 80% or higher) throughout. Besides, the “Growth inhibition grade, P.o” value in the assay with Pyricularia oryzae (setting [1]) and with Pyricularia oryzae (setting [2]) was 5 (% Mycerial growth inhibition of 80% or higher) throughout. Besides, the “Growth inhibition grade, U.n” value with Ustilago nuda (setting [1]) and with Ustilago nuda (setting [2]) was 5 (% Mycerial growth inhibition of 80% or higher) in each case. The “Growth inhibition grade, F.c” value in the assay with Fusarium oxysporum (setting [1]) and with Fusarium oxysporum (setting [2]) was 5 (% Mycerial growth inhibition of 80% or higher) in each case.

For `CC[C@]1(CCl)CC[C@@H](Cc2ccccc2)[C@]1(O)Cn1cncn1` (relative stereo) [Compound I-97], the “Growth inhibition grade, A.m” value is 4 (% Mycerial growth inhibition of less than 80 to 60% or higher) in the assay on Alternaria alternata (setting [1]) and 5 (% Mycerial growth inhibition of 80% or higher) in the assay on Alternaria alternata (setting [2]). Further, the “Growth inhibition grade, P.n” value in the assay on Phaeosphaeria nodorum (setting [1]) and in the assay with Phaeosphaeria nodorum (setting [2]) was 5 (% Mycerial growth inhibition of 80% or higher) in each case. In addition, the “Growth inhibition grade, P.o” value with Pyricularia oryzae (setting [1]) and in the assay with Pyricularia oryzae (setting [2]) was 5 (% Mycerial growth inhibition of 80% or higher) each time. The “Growth inhibition grade, U.n” value in the assay on Ustilago nuda (setting [1]) and in the assay on Ustilago nuda (setting [2]) was 5 (% Mycerial growth inhibition of 80% or higher) in each case. The “Growth inhibition grade, F.c” value in the assay on Fusarium oxysporum (setting [1]) and in the assay with Fusarium oxysporum (setting [2]) was 5 (% Mycerial growth inhibition of 80% or higher) each time.

For the compound `C[C@]1(CCl)CC[C@@H](Cc2ccc(F)cc2F)[C@]1(O)Cn1cncn1` (relative stereo) [Compound I-88], the results for the “Growth inhibition grade, A.m” value in the assay on Alternaria alternata (setting [1]) and in the assay with Alternaria alternata (setting [2]) were 4 (% Mycerial growth inhibition of less than 80 to 60% or higher) and 5 (% Mycerial growth inhibition of 80% or higher), respectively. The “Growth inhibition grade, P.n” value in the assay with Phaeosphaeria nodorum (setting [1]) and in the assay on Phaeosphaeria nodorum (setting [2]) was 5 (% Mycerial growth inhibition of 80% or higher) each time. Also, the “Growth inhibition grade, P.o” value in the assay on Pyricularia oryzae (setting [1]) and with Pyricularia oryzae (setting [2]) was 5 (% Mycerial growth inhibition of 80% or higher) each time. For the same compound, the “Growth inhibition grade, U.n” value in the assay with Ustilago nuda (setting [1]) and in the assay with Ustilago nuda (setting [2]) was 5 (% Mycerial growth inhibition of 80% or higher) each time. Also, the “Growth inhibition grade, F.c” value in the assay with Fusarium oxysporum (setting [1]) and with Fusarium oxysporum (setting [2]) was 5 (% Mycerial growth inhibition of 80% or higher) in each case.
